According to US4272437A, “Antibacterial agents, and 4-thio azetidinone intermediates” (priority 1979, dated 1981):
≈ marks a conversion by molar mass, not a printed value. Read-outs that look alike come from different tables or passages of the source.

Key:
Str. pyogenes A-9604 = experiment: MIC, tube dilution, Streptococcus pyogenes A9604; format: cell-based; conditions: overnight 37° C., Nutrient Broth
Excerpt: (§1) Representative compounds of the present invention were subjected to in vitro antibiotic screening against a variety of microorganisms.

Staph. aureus A-9537 = experiment: MIC, tube dilution, Staphylococcus aureus A9537; format: cell-based; conditions: overnight 37° C., Nutrient Broth; for MIC: Staphylococcus aureus, A9537, Staph. aureus A9537, read-out: Minimum Inhibitory Concentration (M.I.C.); for Minimum Inhibitory Concentration (M.I.C.): Staph. aureus A9537
Excerpt: as §1

[1] = tested on: Staph. aureus A-9537 and 50% serum; experiment: MIC, tube dilution, Staph. aureus A9537 + 50% serum; format: cell-based, Staphylococcus aureus; conditions: overnight 37° C.; for MIC: Staphylococcus aureus, read-out: Minimum Inhibitory Concentration (M.I.C.)
Excerpt: as §1

[2] = tested on: Staph. aureus (Pen-Res) A-9606; experiment: MIC, tube dilution, Staphylococcus aureus A9606 (Pen-Res); format: cell-based; conditions: overnight 37° C.; for MIC: Staphylococcus aureus
Excerpt: as §1

[3] = tested on: Staph. aureus (Meth-Res) A-15097; experiment: MIC, tube dilution, Staphylococcus aureus A15097 (Meth-Res); format: cell-based; conditions: overnight 37° C.; for MIC: Staphylococcus aureus
Excerpt: as §1

Str. faecalis A-20688 = experiment: MIC, tube dilution, Streptococcus faecalis A20688; format: cell-based; conditions: overnight 37° C.; for MIC: Enterococcus faecalis, A20688, Str. faecalis A20688, read-out: Minimum Inhibitory Concentration (M.I.C.)
Excerpt: as §1

E. coli A-15119 = experiment: MIC, tube dilution, Escherichia coli A15119; format: cell-based; conditions: overnight 37° C.; for MIC: Escherichia coli, A15119, E. coli A15119, read-out: Minimum Inhibitory Concentration (M.I.C.)
Excerpt: as §1

E. coli A-20341-1 = experiment: MIC, tube dilution, Escherichia coli A20341-1; format: cell-based
Excerpt: as §1

K. pneumoniae A-15130 = experiment: MIC, tube dilution, Klebsiella pneumoniae A15130; format: cell-based; conditions: overnight 37° C.; for MIC: Klebsiella pneumoniae, A15130, K. pneumoniae A15130, read-out: Minimum Inhibitory Concentration (M.I.C.)
Excerpt: as §1

[4] = tested on: Klebsiella species A20468; experiment: MIC, tube dilution, Klebsiella species A20468; format: cell-based; conditions: Klebsiella species (K. pneumoniae) A20468, overnight 37° C.; for MIC: read-out: Minimum Inhibitory Concentration (M.I.C.)
Excerpt: as §1

Pr. mirabilis A-9900 = experiment: MIC, tube dilution, Proteus mirabilis A9900; format: cell-based; conditions: overnight 37° C.; for MIC: Proteus mirabilis, A9900, Proteus mirabilis A9900, read-out: Minimum Inhibitory Concentration (M.I.C.); for Minimum Inhibitory Concentration (M.I.C.): Proteus mirabilis A9900
Excerpt: as §1

Pr. morganii A-15153 = experiment: MIC, tube dilution, Proteus morganii A15153; format: cell-based; conditions: overnight 37° C.; for MIC: Morganella morganii, A15153, Proteus morganii A15153, read-out: Minimum Inhibitory Concentration (M.I.C.)
Excerpt: as §1

[5] = tested on: Providencia stuartii A21205; experiment: MIC, tube dilution, Providencia stuartii (Pr. rettgeri) A21205; format: cell-based; conditions: for MIC: Providencia stuartii
Excerpt: as §1

Ser. marcescens A-20019 = experiment: MIC, tube dilution, Serratia marcescens A20019; format: cell-based; conditions: overnight 37° C.; for MIC: Serratia marcescens, A20019, Serratia marcescens A20019, read-out: Minimum Inhibitory Concentration (M.I.C.)
Excerpt: as §1

Ent. cloacae A-9659 = experiment: MIC, tube dilution, Enterobacter cloacae A9659; format: cell-based; conditions: overnight 37° C.; for MIC: Enterobacter cloacae, A9659, Enterobacter cloacae A9659, read-out: Minimum Inhibitory Concentration (M.I.C.)
Excerpt: as §1

Ent. cloacae A-9656 = experiment: MIC, tube dilution, Enterobacter cloacae A9656; format: cell-based; conditions: overnight 37° C.; for MIC: read-out: Minimum Inhibitory Concentration (M.I.C.)
Excerpt: as §1

Ps. aeruginosa A-9843A = experiment: MIC, tube dilution, Pseudomonas aeruginosa A9843A; format: cell-based; conditions: Pseudomonas aeruginosa, A9843A, read-out: Minimum Inhibitory Concentration (M.I.C.), Pseudomonas aeruginosa A9843A; overnight 37° C.
Excerpt: as §1

Ps. aeruginosa A-21213 = experiment: MIC, tube dilution, Pseudomonas aeruginosa A21213; format: cell-based; conditions: Pseudomonas aeruginosa A21213; overnight 37° C.; read-out: Minimum Inhibitory Concentration (M.I.C.)
Excerpt: as §1

Str. pneumoniae A-9585 = experiment: MIC, tube dilution, Streptococcus pneumoniae A9585; format: cell-based; conditions: overnight 37° C., Nutrient Broth; for Minimum Inhibitory Concentration (M.I.C.): Str. pneumoniae A9585
Excerpt: as §1

Pr. vulgaris A-9716 = experiment: MIC, tube dilution, Proteus vulgaris / Proteus mirabilis A9716; format: cell-based, Proteus vulgaris (name changed to Proteus mirabilis); conditions: overnight 37° C.; for Minimum Inhibitory Concentration (M.I.C.): Proteus vulgaris / Proteus mirabilis A9716; for MIC: Proteus vulgaris, A9716, read-out: Minimum Inhibitory Concentration (M.I.C.), Proteus vulgaris / Proteus mirabilis A9716
Excerpt: as §1

[6] = Escherichia coli, A203411; E. coli A20341-1; overnight 37° C.; read-out: Minimum Inhibitory Concentration (M.I.C.)
[7] = read-out: Minimum Inhibitory Concentration (M.I.C.), Staph. aureus A9606 (Pen-Res)
[8] = read-out: Minimum Inhibitory Concentration (M.I.C.), Staph. aureus A15097 (Meth-Res)
[9] = A21205, read-out: Minimum Inhibitory Concentration (M.I.C.)

| SMILES | MIC (Staph. aureus A-9537) [µg/mL] | MIC [1] [µg/mL] | Minimum Inhibitory Concentration (M.I.C.) ([2]; Staph. aureus A9606 (Pen-Res)) [µg/mL] | MIC (Str. faecalis A-20688) [µg/mL] | MIC (E. coli A-15119) [µg/mL] | MIC (E. coli A-20341-1; [6]) [µg/mL] | MIC (K. pneumoniae A-15130) [µg/mL] | MIC [4] [µg/mL] | MIC (Pr. mirabilis A-9900) [µg/mL] | MIC (Pr. morganii A-15153) [µg/mL] | MIC (Ser. marcescens A-20019) [µg/mL] | MIC (Ent. cloacae A-9659) [µg/mL] | Minimum Inhibitory Concentration (M.I.C.) (Ent. cloacae A-9656; Enterobacter cloacae A9656) [µg/mL] | MIC (Ps. aeruginosa A-9843A) [µg/mL] | MIC (Ps. aeruginosa A-21213) [µg/mL] | Minimum Inhibitory Concentration (M.I.C.) (Str. pneumoniae A-9585) [µg/mL] | Minimum Inhibitory Concentration (M.I.C.) (Staph. aureus A-9537) [µg/mL] | Minimum Inhibitory Concentration (M.I.C.) (Pr. mirabilis A-9900) [µg/mL] | Minimum Inhibitory Concentration (M.I.C.) (Pr. vulgaris A-9716) [µg/mL] | MIC [2, 7] [µg/mL] | other results |
| --- | --- | --- | --- | --- | --- | --- | --- | --- | --- | --- | --- | --- | --- | --- | --- | --- | --- | --- | --- | --- | --- |
| CSCC1=C(C(=O)O)N2C(=O)C[C@H]2S1 [Preparation 9, 2-Methylthiomethylpenem-3-carboxylic Acid] | 0.5 (≈ 2.16 µM) | 63 | 4 | 63 (≈ 272 µM) | 1 (≈ 4.32 µM) | > 125 | 16 (≈ 69.2 µM) | > 125 | 1 (≈ 4.32 µM) | 4 (≈ 17.3 µM) | 4 (≈ 17.3 µM) | 4 (≈ 17.3 µM) | 8 | > 125 | > 125 |  |  |  |  |  | MIC (Str. pyogenes A-9604; Streptococcus pyogenes, A9604, Str. pyogenes A9604, read-out: Minimum Inhibitory Concentration (M.I.C.)): 0.25 µg/mL (≈ 1.08 µM); MIC ([2]; Staph. aureus A9606 (Pen-Res), read-out: Minimum Inhibitory Concentration (M.I.C.)): 8 µg/mL (≈ 34.6 µM); Minimum Inhibitory Concentration (M.I.C.) ([3]; Staph. aureus A15097 (Meth-Res)): 8 µg/mL; MIC ([3]; Staph. aureus A15097 (Meth-Res), read-out: Minimum Inhibitory Concentration (M.I.C.)): 16 µg/mL (≈ 69.2 µM); Minimum Inhibitory Concentration (M.I.C.) (Str. faecalis A-20688; Str. faecalis A20688): 32 µg/mL; MIC (E. coli A-20341-1; Escherichia coli, A203411, E. coli A20341-1; overnight 37° C.; read-out: Minimum Inhibitory Concentration (M.I.C.)): 63 µg/mL (≈ 272 µM); MIC ([5]; A21205, Providencia stuartii (Pr. rettgeri) A21205, overnight 37° C., read-out: Minimum Inhibitory Concentration (M.I.C.)): 2 µg/mL (≈ 8.65 µM); MIC (Ent. cloacae A-9656; Enterobacter cloacae, A9656, Enterobacter cloacae A9656): 16 µg/mL (≈ 69.2 µM) |
| CC1=C(C(=O)O)N2C(=O)C[C@H]2S1 [Preparation 4(+), (+)-2-Methylpenem-3-carboxylic Acid] |  |  | 0.5 |  |  |  |  |  |  |  |  |  | 8 |  |  | 0.06 | 0.5 | 4 | 4 |  | Minimum Inhibitory Concentration (M.I.C.) (Str. pyogenes A-9604; Str. pyogenes A9604): 0.25 µg/mL; Minimum Inhibitory Concentration (M.I.C.) [1]: 4 µg/mL; Minimum Inhibitory Concentration (M.I.C.) (E. coli A-15119; E. coli A15119): 4 µg/mL; Minimum Inhibitory Concentration (M.I.C.) (K. pneumoniae A-15130; K. pneumoniae A15130): 8 µg/mL; Minimum Inhibitory Concentration (M.I.C.) [4]: > 125 µg/mL; Minimum Inhibitory Concentration (M.I.C.) (Pr. morganii A-15153; Proteus morganii A15153): 8 µg/mL; Minimum Inhibitory Concentration (M.I.C.) ([5]; Providencia stuartii (Pr. rettgeri) A21205, overnight 37° C.): 4 µg/mL; Minimum Inhibitory Concentration (M.I.C.) (Ser. marcescens A-20019; Serratia marcescens A20019): 4 µg/mL; Minimum Inhibitory Concentration (M.I.C.) (Ent. cloacae A-9659; Enterobacter cloacae A9659): 8 µg/mL |
| CC(=O)OCC1=C(C(=O)[O-])N2C(=O)C[C@H]2S1.[Na+] [Preparation 5, Sodium 2-(Acetoxymethyl)penem-3-carboxylate] | 125 | > 63 |  | > 125 | > 125 | > 125 | > 125 | > 125 | > 125 | > 125 | > 125 | > 125 |  | > 125 | > 125 | 16 | > 125 |  |  | > 125 | MIC (Str. pneumoniae A-9585; Streptococcus pneumoniae, A9585, Str. pneumoniae A9585, read-out: Minimum Inhibitory Concentration (M.I.C.)): > 8 µg/mL; MIC [3, 8]: > 125 µg/mL; MIC (Pr. vulgaris A-9716): > 125 µg/mL; MIC [5, 9]: > 125 µg/mL; MIC (Ent. cloacae A-9656; Enterobacter cloacae A9656): > 125 µg/mL |
| CCCCCC1=C(C(=O)[O-])N2C(=O)C[C@H]2S1.[K+] [Preparation 16, Potassium 2-Pentylpenem-3-carboxylate] |  | > 63 |  | 32 | 63 | > 125 | > 125 | > 125 | 4 | 16 | 125 | > 125 |  | > 125 | > 125 |  |  | 8 | 8 | 4 | MIC [3, 8]: 125 µg/mL; MIC (Pr. vulgaris A-9716): 4 µg/mL; MIC [5, 9]: 16 µg/mL; MIC (Ent. cloacae A-9656; Enterobacter cloacae A9656): 125 µg/mL |
